We go through one compound from patent US10941126B2, “Bridged bicycloalkyl-substituted aminothiazoles and their methods of use” (Temple University—Of The Commonwealth System of Higher …, priority 2017, dated 2021).

One assay has as its target T1, GSK-3a (Homo sapiens, UniProt P49840).
T1 construct: Nanosyn (contract assay)
The assay is described as follows: 250 kinome screening at 1 μM. Type of assay: biochemical. The protocol: (§1) HDAC inhibitory activity assays were performed using FLUOR DE LYS® HDAC fluorometric activity assay kit from Enzo following the manufacturer's instructions. GloMax®-Multi Detection System (Promega) was used to read the fluorescence signals. Histone methyltransferase and demethylase enzymatic assays were performed by BPS Bioscience at 10 μM in duplicates. Kinase enzymatic assays were performed by Nanosyn using microfluidic technology. 250 kinome screening was done in duplicates using MC180295 at 1 μM. IC50 curves against 10 CDKs were created for MC180295. The human kinome tree was annotated using the online Kinome Render software (Chartier, M., Chénard, T., Barker, J., and Najmanovich, R. (2013). PeerJ 1, e126). Isotope kinase assay was performed using previously described methods (Garriga, J., Peng, J., Parreño, M., Price, D. H., Henderson, E. E., and Graña, X. (1998). Oncogene 17, 3093-3102) using recombinant active full-length CDK9/CyclinT1 (Millipore, 14-685) and SMARCA4 (Abcam, ab82237) in the presence or absence of CDK9 inhibitors.

Another assay addresses T2, GSK-3β (Homo sapiens, UniProt P49841).
T2 construct: Nanosyn (contract assay)
The assay is described as follows: 250 kinome screening at 1 μM. Format: biochemical. The protocol:
as §1

The test system of a further assay is YB5 cells. The assay is described as follows: GFP reactivation in YB5 cells (flow cytometry). Type of assay: cell-based, human. As to conditions: YB5 cells, one-time 4-day treatment. (In general: Flow cytometry measures light scatter and fluorescence of single cells or particles in a stream.)
The next assay deals with SW48 colon cancer cells. The assay is described as follows: SW48-luc tumors in NSG mice (bioluminescence). The note with it: 10 mg/kg. Format: in vivo, mouse. The protocol:
SW48-luc cell line was generated by transfecting ffluc2ires-h2b-egfp into SW48 cells. GFP positive cells were sorted out one week after transfection and expanded for the in vivo experiments. NSG mice were then inoculated (i.p.) with 1×10^5 SW48-luc cells. One week later, at which time substantial tumor burden was evident by bioluminescence imaging, 5-20 mg/kg MC180295 or drug solvent was administered (i.p) every other day. 200 uL of diluted Pierce™ D-Luciferin, Monosodium Salt (Fisher, 88292) (working concentration: 15 mg/mL) was administered (i.p) into each mouse and was imaged using IVIS imaging system 5 minutes after the administration. Three vehicle treated mice and five drug treated mice were used in this study. MC180295 was dissolved in NMP, Captisol (20% w/v), PEG-400 and normal saline (PBS) in a ratio of 1:4:4:11. NMP first, followed by Captisol and PEG-400. PBS was added last.

The test system of a further assay is HL60 cell line. The assay is described as follows: HL60 cell differentiation (CD11b). Type of assay: cell-based, human. As to conditions: four-day single-dose treatment. As for the experimental part:
For drug screening and dose response validations, GFP positive cells were detected by Millipore Guava flow cytometer (EMD, Millipore). Cell cycle analysis was performed using BD FACSCalibur™ by propidium iodide staining four days after drug treatment. Sub-G1 population percentage was also included to measure apoptotic cell proportion. Data were analyzed using FlowJo software version 10.2. For the cell differentiation analysis, cells were washed and stained with propidium iodide (PI), CD11 b (BD Biosciences, #562793) and the isotype control IgG (BD Biosciences, #555748). Flow cytometry analysis was performed on a Millipore Guava flow cytometer (EMD, Millipore). For the ID8 in vivo experiments, ascites was drained from 5-10 mice per group and incubated in ACK buffer (Thermo Fisher) to lyse red blood cells for 10 minutes, then washed. Ascites from each mouse was individually lysed and prepared for flow cytometry. Mononuclear cells collected were cultured for 4 hours in RPMI with 5% Fetal Bovine Serum and in the presence of Cell Stimulation Cocktail (plus protein transport inhibitors; eBioscience). […] Flow cytometry acquisition was performed on an LSRII cytometer (BD Biosciences) and data were analyzed using FlowJo software version 10.2.

T2 sequence (P49841 whole entry): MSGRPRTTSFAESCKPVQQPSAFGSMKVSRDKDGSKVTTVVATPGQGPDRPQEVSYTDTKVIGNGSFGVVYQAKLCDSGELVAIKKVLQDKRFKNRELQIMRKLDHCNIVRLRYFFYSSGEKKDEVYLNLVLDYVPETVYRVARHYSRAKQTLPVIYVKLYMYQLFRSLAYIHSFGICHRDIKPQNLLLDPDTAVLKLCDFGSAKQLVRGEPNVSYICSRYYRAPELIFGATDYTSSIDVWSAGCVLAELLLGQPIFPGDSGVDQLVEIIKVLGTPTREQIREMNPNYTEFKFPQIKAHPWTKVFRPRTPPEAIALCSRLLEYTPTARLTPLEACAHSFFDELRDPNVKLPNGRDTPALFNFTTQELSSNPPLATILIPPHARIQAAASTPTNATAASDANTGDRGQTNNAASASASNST
T1 sequence (P49840 whole entry): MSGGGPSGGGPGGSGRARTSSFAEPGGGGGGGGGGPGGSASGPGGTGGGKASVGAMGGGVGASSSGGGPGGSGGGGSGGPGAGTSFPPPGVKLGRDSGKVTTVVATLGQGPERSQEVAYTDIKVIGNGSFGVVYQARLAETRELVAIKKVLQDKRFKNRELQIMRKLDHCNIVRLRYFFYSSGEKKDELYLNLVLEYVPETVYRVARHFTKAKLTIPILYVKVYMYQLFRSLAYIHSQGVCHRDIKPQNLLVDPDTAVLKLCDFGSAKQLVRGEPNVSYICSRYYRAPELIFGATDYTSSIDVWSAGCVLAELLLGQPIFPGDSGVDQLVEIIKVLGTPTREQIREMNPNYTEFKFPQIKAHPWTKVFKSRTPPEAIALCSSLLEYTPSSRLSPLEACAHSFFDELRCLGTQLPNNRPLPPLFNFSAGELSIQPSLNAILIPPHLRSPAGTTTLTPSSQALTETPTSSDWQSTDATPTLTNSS

As for `Nc1nc(N[C@H]2CC3CCC2C3)sc1C(=O)c1ccccc1[N+](=O)[O-]` (stereo partly drawn) [MC180295], the inhibition entry against GSK-3a and against GSK-3β was “inhibited” throughout. The “concentration at which active (GFP re-expression)” value in the assay with YB5 cells turned out to be 50 nM. For the same compound, the “tumor shrinkage (luciferase activity)” value with SW48 colon cancer cells (after one-week drug exposure) is recorded as roughly 50%. Further, the “tumor burden (luciferase activity)” value in the assay with SW48 colon cancer cells (after three weeks drug treatment) was “lower”. Moreover, the “differentiation marker CD11b” value in the assay with HL60 cell line is given as “significant induction”.
